# Patent publication US20100113472A1, “COMPOUNDS FOR THE TREATMENT OF OSTEOPOROSIS AND CANCERS” (ChemoCentryx, Inc., priority 2008, published 2010)
# Experiments:
# [1] = pharmacokinetic tests conducted in animals; assay type: in vivo; details: compared with related compounds of U.S. Publication No. 2007/0010524A1
# [2] = test system: Rabbit Model of Destructive Joint Inflammation; experiment: Rabbit model of destructive joint inflammation (rabbit LPS study); assay type: in vivo; details: oral, 2 h before and 4 h after intra-articular LPS (10 ng); lavage 16 h after LPS
# Method: A rabbit LPS study was conducted essentially as described in Podolin, et al. J. Immunol. 169(11):6435-6444 (2002). Female New Zealand rabbits (approximately 2 kilograms) were treated intra-articularly in both knees with LPS (10 ng). The compound of interest, for example 1.016, (formulated in 1% methocel) or vehicle (1% methocel) was dosed orally at a 5 ml/kg dose volume at two times (2 hours before the intra-articular LPS injection and 4 hours after the intra-articular LPS injection). Sixteen hours after the LPS injection, knees were lavaged and cells counts were performed. Beneficial effects of treatment were determined by reduction in the number of inflammatory cells recruited to the inflamed synovial fluid of the knee joints.
# [3] = test system: human peripheral blood mononuclear cells (PBMC) differentiating into osteoclasts; experiment: Inhibition of formation of osteoclasts in vitro; assay type: cell-based; details: Osteoclast, 504 h, 100 nM, M-CSF and RANKL 50 ng/ml each, day 21, over the untreated control, read-out: inhibition of osteoclast formation (TRAP+ multinuclear cells)
# Method: PBMC were prepared by layering human whole blood over a Ficoll ague plus (Amersham) gradient and centrifuging 45 minutes at 400 g. The interface of white cells is removed and washed twice with PBS, and placed in culture in RPMI with 10% FBS.
# CCR1 is expressed on both osteoclast precursor cells and mature osteoclasts and modulates osteoclast formation and maturation. To evaluate the ability of the 1.016 compound to block osteoclast formation in vitro, human peripheral blood mononuclear cells (PBMC) were cultured in the presence of M-CSF (50 ng/ml) and RANKL (50 ng/ml), which induces the monocyte subpopulation to differentiate into giant multinucleated osteoclasts over 21 days. Compound 1.016 was added at a concentration of 100 nM to the culture media on day one and the compound/medium was changed twice weekly. On day 21, cells were fixed and stained for tartrate-resistant acid phosphatase (TRAP) (acid phosphatase leukocyte staining kit, Sigma, Mo.) and TRAP^+ multinuclear (3 or more nuclei) cells were quantified by light microscopy. Osteoclast formation in the presence of 1.016 was inhibited by ˜40% over the untreated control.
# [4] = test system: Rat Model of Collagen Induced Arthritis; experiment: Rat model of collagen induced arthritis; assay type: in vivo; details: female Lewis rats; 150 mg/kg oral, twice daily, day 9 to day 17
# Method: A 17 day developing type II collagen arthritis study was conducted to evaluate the effects of a compound of interest on arthritis induced clinical ankle swelling. Rat collagen arthritis is an experimental model of polyarthritis that has been widely used for preclinical testing of numerous anti-arthritic agents (see Trentham, et al., J. Exp. Med. 146(3):857-868 (1977), Bendele, et al., Toxicologic Pathol. 27:134-142 (1999), Bendele, et al., Arthritis Rheum. 42:498-506 (1999)). The hallmarks of this model are reliable onset and progression of robust, easily measurable polyarticular inflammation, marked cartilage destruction in association with pannus formation and mild to moderate bone resorption and periosteal bone proliferation.
# To measure the efficacy of CCR1 antagonists on the development of collagen induced arthritis in rats, compound 1.016 was evaluated in groups of 20 female Lewis rats. Animals were injected with 300 μl of Freund's Incomplete Adjuvant (Difco, Detroit, Mich.) containing 2 mg/ml bovine type II collagen (Elastin Products, Owensville, Mo.) at the base of the tail and 2 sites on the hack on days 0 and 6. Dosing by oral route (150 mg/kg; oral, twice daily) was initiated on day 9 of established disease (day 0 of arthritis) and continued through day 17 (day 7 of arthritis). On arthritis day 7, animals were euthanized for tissue collection. Hind paws were transected at the level of the medial and lateral malleolus, weighed and placed in formalin for microscopy. Osteoclasts were counted in 5, 400× magnification fields in ankle and knee of each joint and the mean number for the joint determined. Collagen arthritic ankles are also given scores of 0-5 (0 indicating normal and 5 indicating severe) for bone resorption according to established criteria.
compound,measurement,setting,value
"COc1cc(N2CCN(C(=O)Cn3nc(-c4ncc[nH]4)c4cccnc43)CC2)ccc1Cl [compound 1.016, 1-[4-(4-Chloro-3-methoxy-phenyl)-piperazin-1-yl]-2-[3-(1H-imidazol-2-yl)-pyrazolo[3,4-b]pyridin-1-yl]-ethanone]",AUC,[1],increased
same,Cmax,[1],increased
same,oral bioavailability,[1],improved
same,recruited inflammatory cells in synovial fluid of the knee joints,[2],significant reduction
same,inhibition at 0.1 µM,[3],~40%
same,bone resorption (score 0-5),[4],reduction in bone resorption
same,clinical changes associated with established type II collagen arthritis,[4],effectively inhibited
same,joint swelling assessed by caliper measurements,[4],reduction in joint swelling
same,osteoclasts in ankle and knee (histopathology),[4],reduction of osteoclasts
